In patent US8288438B2, “Methods for avoiding edema in the treatment or prevention of PPARγ-responsive diseases, including cancer” (Metabolex, Inc., priority 2005, dated 2012):
Read-outs that look alike come from different tables or passages of the source.

Legend:
C57BL/6j ob/ob Mice = assay: glucose lowering activity of halofenate analogs in C57BL/6J ob/ob mice (Example 14); type: in vivo
Experimental: Male, 8-9 weeks old, C57BL/6J ob/ob mice were purchased from The Jackson Laboratory (Bar Harbor, Me., USA). Animals were housed (4-5 mice/cage) under standard laboratory conditions at 22±3° C. temperature and 50±20% relative humidity, and were maintained on a diet of Purina rodent chow and water ad libitum. Prior to treatment, blood was collected from the tail vein of each animal. Mice that had non-fasting plasma glucose levels between 250 and 500 mg/dl were used. Each treatment group consisted of 8-10 mice that were distributed so that the mean glucose levels were equivalent in each group at the start of the study. Mice were dosed orally by gavage once a day for 1-3 days with either vehicle, (−) halofenic acid, (±) analog 14, 29, 33, 34, 35, 36, 37, or 38 at 125 mg/kg or (−) analog 29, 36, 37 or 38 at 150 mg/kg. compounds were delivered in a liquid formulation containing 5% (v/v) dimethyl sulfoxide (DMSO), 1% (v/v) tween 80 and 0.9% (w/v) methylcellulose. The gavage volume was 10 ml/kg. Blood samples were taken at 6 hours after the each dose and analyzed for plasma glucose. Food intake and body weight were measured daily. Plasma glucose concentrations were determined calorimetrically using glucose oxidase method (Sigma Chemical Co, St. Louis, Mo., USA). Significant difference between groups (comparing drug-treated to vehicle-treated) was evaluated using the Student unpaired t-test.

PPARγ = target: T1, PPARγ (Homo sapiens, UniProt P37231); assay: partial agonism on PPARγ (Example 8, FIG. 6); type: cell-based
T1 sequence (P37231 1-505): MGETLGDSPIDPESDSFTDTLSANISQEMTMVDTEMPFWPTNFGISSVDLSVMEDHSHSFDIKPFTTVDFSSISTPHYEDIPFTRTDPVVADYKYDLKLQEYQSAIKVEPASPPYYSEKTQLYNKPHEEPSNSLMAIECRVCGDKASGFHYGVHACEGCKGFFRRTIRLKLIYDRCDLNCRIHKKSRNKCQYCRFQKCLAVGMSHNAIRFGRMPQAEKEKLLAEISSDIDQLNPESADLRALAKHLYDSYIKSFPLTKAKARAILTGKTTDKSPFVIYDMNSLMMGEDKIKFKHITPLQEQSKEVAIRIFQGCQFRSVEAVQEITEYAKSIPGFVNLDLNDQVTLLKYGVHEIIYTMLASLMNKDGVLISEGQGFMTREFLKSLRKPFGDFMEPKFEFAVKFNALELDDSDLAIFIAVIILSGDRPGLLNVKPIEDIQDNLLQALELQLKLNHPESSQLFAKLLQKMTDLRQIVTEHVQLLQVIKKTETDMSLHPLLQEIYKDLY
Description: Expression of reporter genes in response to compounds identified as binders of PPARγ may also be used to measure PPARγ activation. PPARγ may be co-transfected with reporter genes known in the art such as, for example, luciferase, β-galactosidase, alkaline phosphatase, fluorescent green protein, or chloramphenicol acetyltransferase. The transfected cells can be exposed to appropriate concentrations of candidate compounds with rosiglitazone as a positive control. Reporter gene expression will be induced by compounds that bind and activate PPARγ. Thus, compounds that induce reporter gene expression can be identified as activators of PPARγ (Forman, et al. (1997) PNAS 94:4312). Preferably the compounds induce reporter gene expression at levels at least 5-10 fold, more preferably 10-100 fold, more preferably 100-500 fold, more preferably 500-1000 fold, most preferably greater than 1000 fold greater than the negative control.
Example 8 illustrates the partial agonism of the (−) isomer of either halofenic acid or halofenate on PPARγ (see, FIG. 6).

cytochrome P450 2C9 = cytochrome P450 2C9 (Homo sapiens, UniProt P11712); conditions: cited from earlier work
Chain of cytochrome P450 2C9 (P11712 whole entry): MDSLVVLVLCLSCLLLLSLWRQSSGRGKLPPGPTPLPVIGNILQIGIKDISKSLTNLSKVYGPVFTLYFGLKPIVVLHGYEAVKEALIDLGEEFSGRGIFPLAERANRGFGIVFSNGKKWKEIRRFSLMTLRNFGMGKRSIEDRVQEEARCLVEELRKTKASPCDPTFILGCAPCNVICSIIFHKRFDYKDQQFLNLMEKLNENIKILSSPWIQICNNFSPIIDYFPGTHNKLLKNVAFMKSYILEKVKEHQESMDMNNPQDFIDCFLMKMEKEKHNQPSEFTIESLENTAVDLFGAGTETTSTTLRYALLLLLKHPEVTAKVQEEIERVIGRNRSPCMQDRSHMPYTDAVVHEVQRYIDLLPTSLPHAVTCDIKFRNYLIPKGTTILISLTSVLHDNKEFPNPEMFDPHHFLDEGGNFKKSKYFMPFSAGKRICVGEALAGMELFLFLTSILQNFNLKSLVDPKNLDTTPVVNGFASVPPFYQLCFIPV

[1] = 125 mg/kg oral gavage once a day
[2] = (−) analogs, single dose 150 mg/kg

| Compound | plasma glucose concentrations vs vehicle (in words) (C57BL/6j ob/ob Mice; [1]) | plasma glucose concentrations vs vehicle (in words) (C57BL/6j ob/ob Mice; [2]) | also measured |
| --- | --- | --- | --- |
| O=C(NCCOC(=O)C(Oc1cccc(C(F)(F)F)c1)c1ccc(Cl)cc1)c1ccccc1 (racemic) [(±)Analog 36] | significantly lowered plasma glucose concentrations at 30 and 54 hours |  |  |
| NC(=O)COC(=O)C(Oc1cccc(C(F)(F)F)c1)c1ccc(Cl)cc1 (racemic) [(±)Analog 37] | significantly lowered plasma glucose concentrations at 54 hours |  |  |
| CN(C)C(=O)COC(=O)C(Oc1cccc(C(F)(F)F)c1)c1ccc(Cl)cc1 (racemic) [(±)Analog 38] | significantly lowered plasma glucose concentrations at 6, 30 and 54 hours |  |  |
| O=C(O)C(Oc1ccc(Cl)cc1-n1nc2ccccc2n1)c1ccccc1 (racemic) [Formula V] |  |  | kind of PPARγ agonism (PPARγ): partial PPARγ agonists |
| O=C(O)C(Oc1cccc(C(F)(F)F)c1)c1ccc(Cl)cc1 (racemic) [racemic halofenic acid, 4-Chlorophenyl-(3-trifluoromethylphenoxy)-acetic Acid, reference compound] |  |  | kind of PPARγ agonism (PPARγ): partial PPARγ agonists; inhibition of cytochrome P450 2C9 (cytochrome P450 2C9): found to inhibit |
| O=C(O)C(Oc1cccc(C(F)(F)F)c1)c1ccc(Cl)cc1 (single isomer, unassigned; (+)) [(+) enantiomer of halofenic acid, (+) 4-chlorophenyl-(3-trifluoromethylphenoxy)-acetic acid] |  |  | inhibition of cytochrome P450 2C9 (cytochrome P450 2C9): quite potent |
| CC(=O)NCCOC(=O)C(Oc1cccc(C(F)(F)F)c1)c1ccc(Br)cc1 (single isomer, unassigned; (-)) [(−)Analog 29] |  | significantly reduced plasma glucose concentrations at 6 hours |  |
| O=C(NCCOC(=O)C(Oc1cccc(C(F)(F)F)c1)c1ccc(Cl)cc1)c1ccccc1 (single isomer, unassigned; (-)) [(−)Analog 36] |  | significantly reduced plasma glucose concentrations at 6 hours |  |
| NC(=O)COC(=O)C(Oc1cccc(C(F)(F)F)c1)c1ccc(Cl)cc1 (single isomer, unassigned; (-)) [(−)Analog 37] |  | significantly reduced plasma glucose concentrations at 6 hours |  |
| CN(C)C(=O)COC(=O)C(Oc1cccc(C(F)(F)F)c1)c1ccc(Cl)cc1 (single isomer, unassigned; (-)) [(−)Analog 38] |  | significantly reduced plasma glucose concentrations at 6 hours |  |
| O=C(O)C(Oc1cccc(C(F)(F)F)c1)c1ccc(Cl)cc1 (single isomer, unassigned; (-)) [(−)halofenic acid, (−) (3-trifluoromethylphenoxy) (4-chlorophenyl)acetic acid] | significantly reduced plasma glucose concentrations at 6 hours |  | kind of PPARγ agonism (PPARγ): partial agonist; ability to induce PPARγ expression (PPARγ; FIG. 6): a few fold; antagonizing the agonist activity of rosiglitazone (PPARγ; FIG. 6): significantly antagonizing; inhibition of cytochrome P450 2C9 (cytochrome P450 2C9; listed as (−) enantiomer of halofenic acid): about twenty-fold less active |
